Results: ChEMBL document CHEMBL1144600, “Efficient synthesis and biological evaluation of omega-oxygenated analogues of vitamin K2: study of modification and structure-activity relationship of vitamin K2 metabolites” (2007)
Activity calls are given as the source filed them. No cut-off for these calls is given here.

Test system: HL-60
Assay: Apoptosis inducing activity in human HL60 cells at 10 uM after 74 hrs
Assay type: functional

SMILES	Activity
CC1=C(C/C=C(\C)CC/C=C(\C)CC/C=C(\C)CO)C(=O)c2ccccc2C1=O	75%
CC1=C(C/C=C(\C)CC/C=C(\C)CC/C=C(\C)CC/C=C(\C)C=O)C(=O)c2ccccc2C1=O	inactive
CC1=C(C/C=C(\C)CC/C=C(\C)CC/C=C(\C)CC/C=C(\C)CO)C(=O)c2ccccc2C1=O	15%
CC1=C(C/C=C(\C)CC/C=C(\C)C=O)C(=O)c2ccccc2C1=O	inactive
CC1=C(C/C=C(\C)CC/C=C(\C)CC/C=C(\C)C=O)C(=O)c2ccccc2C1=O	inactive
CC1=C(C/C=C(\C)CC/C=C(\C)CO)C(=O)c2ccccc2C1=O	inactive
